For orientation: IC50 means the point on the concentration scale where inhibition reaches its midpoint. High values mean a need for much substance, low ones inhibition by little substance.

We go through seven compounds from patent US20190255048A1, “PYRIMIDINE COMPOUND OR SALT THEREOF IN APPLICATION FOR MANUFACTURING PHARMACEUTICAL PRODUCT FOR PREVENTING AND/OR TREATING FLT3-RELATED DISEASE OR DISORDER” (SHENZHEN HAIBIN PHARMACEUTICAL CO., LTD, priority 2016, published 2019).

One experiment addresses T1, FLT3 kinase (Homo sapiens, UniProt P36888).
T1 sequence (P36888 27-993): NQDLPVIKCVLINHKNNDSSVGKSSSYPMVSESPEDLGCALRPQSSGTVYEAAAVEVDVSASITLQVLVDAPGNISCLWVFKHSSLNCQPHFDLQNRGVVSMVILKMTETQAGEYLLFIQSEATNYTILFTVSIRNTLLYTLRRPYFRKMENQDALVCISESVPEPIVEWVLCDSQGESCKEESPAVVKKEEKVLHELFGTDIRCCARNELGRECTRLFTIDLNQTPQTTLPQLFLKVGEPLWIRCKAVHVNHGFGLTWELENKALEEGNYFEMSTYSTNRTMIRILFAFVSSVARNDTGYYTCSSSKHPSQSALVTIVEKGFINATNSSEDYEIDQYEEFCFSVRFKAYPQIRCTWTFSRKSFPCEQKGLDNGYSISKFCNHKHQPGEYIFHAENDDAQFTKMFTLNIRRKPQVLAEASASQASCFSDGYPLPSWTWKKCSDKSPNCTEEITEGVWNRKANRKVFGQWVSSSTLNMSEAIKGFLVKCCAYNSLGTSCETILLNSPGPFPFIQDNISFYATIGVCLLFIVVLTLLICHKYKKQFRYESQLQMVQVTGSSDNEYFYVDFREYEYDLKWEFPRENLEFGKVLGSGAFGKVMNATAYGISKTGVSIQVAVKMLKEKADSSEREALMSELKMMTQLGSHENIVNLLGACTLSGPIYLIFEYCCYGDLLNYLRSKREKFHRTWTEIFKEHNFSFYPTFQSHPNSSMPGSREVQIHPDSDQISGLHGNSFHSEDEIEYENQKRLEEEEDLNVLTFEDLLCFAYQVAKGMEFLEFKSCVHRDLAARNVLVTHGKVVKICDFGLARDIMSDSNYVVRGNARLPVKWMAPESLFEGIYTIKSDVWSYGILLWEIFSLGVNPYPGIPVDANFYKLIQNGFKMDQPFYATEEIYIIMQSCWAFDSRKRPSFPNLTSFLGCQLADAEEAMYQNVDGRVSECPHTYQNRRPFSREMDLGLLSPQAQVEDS
In words: Activity of inhibiting FLT3 kinase (fluorescein labeled peptide kinase assay). It is filed as biochemical. The following applies: in vitro kinase assay, 28° C. As for the experimental part: Activity of Inhibiting FLT3 Kinase
1. Preparation of 1 × Kinase Buffer and Termination Buffer:
(1) MnCl2-free 1× kinase buffer: 50 mM HEPES, pH 7.5, 0.0015% Brij-35, 10 mM MgCl2, 2 mM DTT;
(2) Termination buffer: 100 mM HEPES, pH 7.5, 0.015% Brij-35, 0.2% Coating Reagent #3, 50 mM EDTA.
2. Preparation of compounds for testing kinase: the compounds are diluted continuously.
(1) the compound was diluted to 50 times the maximum final concentration with 100% DMSO. […] of the solution containing the compound at this concentration was transferred to one hole of 96-well plate;
(2)10 concentrations of compounds were prepared by diluting 20 mL original solution with 60 mL DMSO;
(3) […] solution of 100% DMSO was added into two empty holes as compound-free control and enzyme-free control; (4) a transitional plate was prepared, 10 mL compounds at different concentrations were transferred from the original plate to the transitional plate respectively, 90 mL 1× kinase buffer was added, and then mixed under oscillation for 10 minutes;
(5) preparation of an experimental plate: 5 mL solution containing compounds was transferred from the hole of the transitional plate of the 96-well plate to the corresponding hole of 384-well plate.
(1) Preparation of 2.5× enzyme solution: enzyme was added to the 1× kinase buffer;
(2) Preparation of 2.5× peptide solution: a fluorescein labeled peptide and ATP were added to the 1× kinase buffer;
(3) 10 mL 2.5× enzyme solution was added to an experimental 384-well plate containing the compound solution with a concentration of 10% containing 5 mL DMSO and incubated at room temperature for 10 minutes;
(4) 10 mL 2.5× peptide solution was added to an experimental 384-well plate;
(5) kinase reaction and termination: Incubation was carried out at 28° C. for certain time, 25 mL termination buffer was added to terminate the reaction.
Data was read and collected.
(1) detected data was copied and converted
(2) data was converted to inhibitory rate
Inhibitory rate=(Maximum Value−Sample Value)/(Maximum Value−Minimum Value)*100;
wherein “Maximum Value” is the value of DMSO control; “Minimum Value” is the value of kinase-free control hole.
(3) the data was input an analysis software to obtain IC50 value.

For experiment [1], the system named is human acute myeloid leukemia cell strain MOLM-13 (expressing FLT3/ITD mutant gene and wild-type FLT3 gene). In words: Effects on proliferation of tumor cells (Cell Titer-Glo), MOLM-13. Format: cell-based. The following applies: MOLM-13, incubated for 72 hours. The text has this: (§1) This example tested the effects of the compounds of the present invention (the compound shown in Formula (I), hydrochloride salt, phosphate, mesylate, lactate, acetate, sulphate, and hydrobromide thereof prepared in EXAMPLES 1-8 respectively) on proliferation of tumor cells, and further evaluated the inhibitory effects of the compounds on proliferation of tumor cells and selectivity of the compounds in inhibiting proliferation of tumor cells.
(2) human acute myeloid leukemia cell strain MOLM-13 (expressing FLT3/ITD mutant gene and wild-type FLT3 gene);
(§2) The compounds at different concentration (0.000508 μM, 0.00152 μM, 0.00457 μM, 0.0137 μM, 0.0411 μM, 0.123 μM, 0.370 μM, 1.11 μM, 3.33 μM, 10 μM in DMSO) were added to the above-mentioned cells respectively, incubated for 72 hours, Cell Titer-Glo (Promega, United States of America) Chemiluminescence Kit was used to quantify ATP in living cells to detect the number of living cells, the results were shown as Table 3
For orientation: In ATP-based viability assays light output follows the ATP content of the culture.

The test system of experiment [2] is human acute myeloid leukemia cell strain OCI-AML-3 (expressing FLT3A680V mutant gene). In words: Effects on proliferation of tumor cells (Cell Titer-Glo), OCI-AML-3. It is filed as cell-based. The following applies: OCI-AML-3, incubated for 72 hours.
Description: as §1
(4) human acute myeloid leukemia cell strain OCI-AML-3 (expressing FLT3A680V mutant gene);
as §2

For experiment [3], the system named is human acute myeloid leukemia cell strain U937 (expressing wild-type FLT3 gene). Kind of experiment: Effects on proliferation of tumor cells (Cell Titer-Glo), U937. It is filed as cell-based.
Description: as §1
(5) human acute myeloid leukemia cell strain U937 (expressing wild-type FLT3 gene);
as §2

For experiment [4], the system named is mouse TEL-BaF3-FLT3-D835Y (stably expressing FLT3D835Y mutant activated kinase). In words: Effects on proliferation of cells (Cell Titer-Glo), TEL-BaF3-FLT3-D835Y. The following applies: incubated for 72 hours. It is filed as cell-based.
Description: as §1
(7) mouse TEL-BaF3-FLT3-D835Y (stably expressing FLT3D835Y mutant activated kinase);
as §2

The test system of experiment [5] is mouse TEL-FLT3-BaF3 (stably expressing FLT3 kinase). Kind of experiment: Effects on proliferation of cells (Cell Titer-Glo), TEL-FLT3-BaF3. The following applies: TEL-FLT3-BaF3, incubated for 72 hours. Format: cell-based.
Description: as §1
(8) mouse TEL-FLT3-BaF3 (stably expressing FLT3 kinase);
as §2

As to `CC(=O)O.Nc1sc(-c2c(F)cccc2F)nc1C(=O)Nc1cncnc1OCC1CCNCC1` [Acetate of compound of Formula (I)], the IC50 was 27 nM on FLT3 kinase; 0.43 µM in experiment [1]; 0.32 µM in experiment [2]; 2.09 µM in experiment [3] (U937, incubated for 72 hours); 0.32 µM in experiment [4]; 0.03 µM in experiment [5].

As for `Nc1sc(-c2c(F)cccc2F)nc1C(=O)Nc1cncnc1OCC1CCNCC1` [Compound of Formula (I), 5-amino-2-(2,6-difluorophenyl)-N-(4-(piperidine-4-methoxy)pyrimidine-5-) thiazole-4-formamide], the IC50 against FLT3 kinase is 40 nM; in experiment [1] (Homo sapiens), 0.52 µM; in experiment [2] (Homo sapiens) it was 0.34 µM; in experiment [3] (Homo sapiens, U-937, U937, incubated for 72 hours), no less than 13.4 µM; in experiment [4] (Mus musculus) it was 0.32 µM; in experiment [5] (Mus musculus), 0.12 µM.

For `Br.Nc1sc(-c2c(F)cccc2F)nc1C(=O)Nc1cncnc1OCC1CCNCC1` [Hydrobromide of compound of Formula (I)], the IC50 worked out at 39 nM at FLT3 kinase; 0.51 µM in experiment [1]; 0.11 µM in experiment [2]; 4.66 µM in experiment [3] (U937, incubated for 72 hours); 0.31 µM in experiment [4]; 0.16 µM in experiment [5].

In the case of `Cl.Nc1sc(-c2c(F)cccc2F)nc1C(=O)Nc1cncnc1OCC1CCNCC1` [Hydrochloride salt of compound of Formula (I)], the IC50 turned out to be 15 nM against FLT3 kinase; 0.12 µM in experiment [1]; 0.05 µM in experiment [2]; 6.21 µM in experiment [3] (U937, incubated for 72 hours); 0.21 µM in experiment [4]; 0.03 µM in experiment [5].

With `CC(O)C(=O)O.Nc1sc(-c2c(F)cccc2F)nc1C(=O)Nc1cncnc1OCC1CCNCC1` [Lactate of compound of Formula (I)], the IC50 against FLT3 kinase came to 25 nM; in experiment [1], 0.28 µM; in experiment [2], 0.08 µM; in experiment [3] (U937, incubated for 72 hours), 9.05 µM; in experiment [4], 0.13 µM; in experiment [5], 0.06 µM.

As to `CS(=O)(=O)O.Nc1sc(-c2c(F)cccc2F)nc1C(=O)Nc1cncnc1OCC1CCNCC1` [Mesylate of compound of Formula (I)], the 50% inhibitory concentration (IC50) against FLT3 kinase worked out at 28 nM; in experiment [1] it was 0.45 µM; in experiment [2] it was 0.06 µM; in experiment [3] (U937, incubated for 72 hours) it was 7.42 µM; in experiment [4], 0.31 µM; in experiment [5] it was 0.05 µM.

With `Nc1sc(-c2c(F)cccc2F)nc1C(=O)Nc1cncnc1OCC1CCNCC1.O=S(=O)(O)O` [Sulphate of compound of Formula (I)], the IC50 at FLT3 kinase was 28 nM; in experiment [1], 0.23 µM; in experiment [2] it was 0.21 µM; in experiment [3] (U937, incubated for 72 hours), 3.56 µM; in experiment [4], 0.22 µM; in experiment [5] it was 0.05 µM.
